# Reference: patent publication US20250361230A1, “LATS Inhibitors and Uses Thereof” (The USA, as Represented by the Secretary, Dept. of Heath …, priority 2022, published 2025)
# Biological target: T1, LATS2 (Homo sapiens, UniProt Q9NRM7)
# T1 sequence (Q9NRM7 1-1088): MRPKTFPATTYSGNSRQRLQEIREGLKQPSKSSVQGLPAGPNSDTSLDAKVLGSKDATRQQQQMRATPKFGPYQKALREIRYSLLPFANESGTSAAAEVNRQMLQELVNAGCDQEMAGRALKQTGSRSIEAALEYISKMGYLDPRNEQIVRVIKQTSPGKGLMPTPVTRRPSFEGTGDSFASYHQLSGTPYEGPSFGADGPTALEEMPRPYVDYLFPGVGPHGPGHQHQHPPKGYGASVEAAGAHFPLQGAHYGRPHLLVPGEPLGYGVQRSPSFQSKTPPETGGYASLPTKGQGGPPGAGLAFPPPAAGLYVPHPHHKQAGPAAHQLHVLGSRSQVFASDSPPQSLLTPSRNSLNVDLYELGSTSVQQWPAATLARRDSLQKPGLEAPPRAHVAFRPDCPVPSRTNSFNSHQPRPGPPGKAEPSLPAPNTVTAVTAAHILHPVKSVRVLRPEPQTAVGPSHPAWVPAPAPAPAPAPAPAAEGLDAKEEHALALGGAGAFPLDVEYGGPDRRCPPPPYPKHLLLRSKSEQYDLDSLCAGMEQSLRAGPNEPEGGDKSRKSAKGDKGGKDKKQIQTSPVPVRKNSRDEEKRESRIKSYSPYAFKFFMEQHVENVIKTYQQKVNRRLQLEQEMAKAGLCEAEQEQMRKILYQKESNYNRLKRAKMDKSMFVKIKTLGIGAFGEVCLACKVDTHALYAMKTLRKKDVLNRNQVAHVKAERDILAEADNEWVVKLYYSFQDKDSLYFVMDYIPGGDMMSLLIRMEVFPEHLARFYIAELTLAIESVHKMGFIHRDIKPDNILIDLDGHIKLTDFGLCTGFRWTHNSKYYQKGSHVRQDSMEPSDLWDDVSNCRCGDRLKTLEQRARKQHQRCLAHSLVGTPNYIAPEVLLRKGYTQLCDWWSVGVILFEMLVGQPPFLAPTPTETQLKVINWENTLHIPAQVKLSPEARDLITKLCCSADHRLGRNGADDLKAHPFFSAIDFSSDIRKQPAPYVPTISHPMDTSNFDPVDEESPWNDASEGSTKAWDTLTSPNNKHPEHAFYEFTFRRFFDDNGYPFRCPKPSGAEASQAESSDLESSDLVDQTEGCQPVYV
# Test: RBC HotSpot kinase assay (33P-ATP, P81 filter-binding), LATS2
# Assay type: biochemical
# Conditions: Table 28, biochemical kinase assay; read-out: LATS2 IC50
# Summary of the method: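 Substrate in fresh buffer receives cofactors, then kinase, then compound in DMSO for a 20 min room-temperature preincubation. Reactions start with 33P-ATP and run 2 h; phosphorylation is read by P81 filter binding, and IC50 comes from a 10-point curve.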
row,SMILES,IC50 [nM]
1,"C[C@@H]1CN(C2CCC2)C[C@H](C)[C@@]1(O)c1c(F)cc(-c2ccnc3[nH]cc(F)c23)cc1F [Compound 46, (3R,4s,5S)-1-cyclobutyl-4-(2,6-difluoro-4-(3-fluoro-1H-pyrrolo[2,3-b]pyridin-4-yl)phenyl)-3,5-dimethylpiperidin-4-ol]",4
2,"NCc1ccc(-c2ccnc3[nH]ccc23)cc1C(F)(F)F [Compound 284, (4-(1H-pyrrolo[2,3-b]pyridin-4-yl)-2-(trifluoromethyl)phenyl) methanamine]",45
3,"NCc1ccc(-c2ccnc3[nH]cc(Cl)c23)cc1 [Compound 276, (4-(3-chloro-1H-pyrrolo[2,3-b]pyridin-4-yl)phenyl) methanamine]",5.8
4,"Cc1cc(-c2ccnc3[nH]cc(F)c23)ncc1[C@@]1(O)[C@H](C)CN(C2CCS(=O)(=O)CC2)C[C@@H]1C [Compound 51, 4-((3R,4s,5S)-4-(6-(3-fluoro-1H-pyrrolo[2,3-b]pyridin-4-yl)-4-methylpyridin-3-yl)-4-hydroxy-3,5-dimethylpiperidin-1-yl)tetrahydro-2H-thiopyran 1,1-dioxide]",4250
5,"Cc1cc(-c2ccnc3[nH]cc(F)c23)ccc1CN [Compound 211, (4-(3-fluoro-1H-pyrrolo[2,3-b]pyridin-4-yl)-2-methylphenyl) methanamine]",5.5
6,"CC1(c2ccc(-c3ccnc4[nH]ccc34)cc2)CCNCC1 [Compound 201, 4-(4-(4-methylpiperidin-4-yl)phenyl)-1H-pyrrolo[2,3-b]pyridine]",43
7,"Fc1c[nH]c2nccc(-c3ccc(C4CCNCC4)c(Cl)c3)c12 [Compound 172, 4-(3-chloro-4-(piperidin-4-yl)phenyl)-3-fluoro-1H-pyrrolo[2,3-b]pyridine]",19
8,"OC1(c2ccc(-c3ccnc4[nH]cc(F)c34)cc2)CCNCC1 [Compound 110, 4-(4-(3-fluoro-1H-pyrrolo[2,3-b]pyridin-4-yl)phenyl)piperidin-4-ol]",2.9
9,"C[C@@H]1CN(Cc2ccccn2)C[C@H](C)[C@@]1(O)c1c(F)cc(-c2ccnc3[nH]cc(F)c23)cc1F [Compound 17, (3S,4s,5R)-4-(2,6-difluoro-4-(3-fluoro-1H-pyrrolo[2,3-b]pyridin-4-yl)phenyl)-3,5-dimethyl-1-(pyridin-2-ylmethyl)piperidin-4-ol]",11.9
10,"NCc1ccc(-c2ccnc3[nH]cc(-c4ccccc4)c23)cc1 [Compound 253, (4-(3-phenyl-1H-pyrrolo[2,3-b]pyridin-4-yl)phenyl) methanamine]",5
11,"OC1(c2ccc(-c3ccnc4[nH]cc(F)c34)cc2)CC2(CNC2)C1 [Compound 319, 6-(4-(3-fluoro-1H-pyrrolo[2,3-b]pyridin-4-yl)phenyl)-2-azaspiro[3.3]heptan-6-ol]",29.3
12,"Cc1cc(-c2ccnc3[nH]cc(F)c23)cc(F)c1C1(O)[C@H](C)CN(C2COC2)C[C@@H]1C (stereo partly drawn) [Compound 30, (3S,5R)-4-(2-fluoro-4-(3-fluoro-1H-pyrrolo[2,3-b]pyridin-4-yl)-6-methylphenyl)-3,5-dimethyl-1-(oxetan-3-yl)piperidin-4-ol]",9
13,"C[C@@H]1CNC[C@H](C)[C@@]1(O)c1ccc(-c2ccnc3[nH]cc(F)c23)nc1 [Compound 8, (3S,4s,5R)-4-(6-(3-fluoro-1H-pyrrolo[2,3-b]pyridin-4-yl)pyridin-3-yl)-3,5-dimethylpiperidin-4-ol]",203
14,"OC1(c2ccc(-c3ccnc4[nH]ccc34)cc2)CCNCC1 [Compound 111, 4-(4-(1H-pyrrolo[2,3-b]pyridin-4-yl)phenyl)piperidin-4-ol]",22
15,"NCc1ccc(-c2ccnc3[nH]cc(-c4ccccc4)c23)cc1-c1ccccc1 [Compound 219, (5-(3-phenyl-1H-pyrrolo[2,3-b]pyridin-4-yl)-[1,1′-biphenyl]-2-yl)methanamine]",128
16,"C[C@@H]1CN(C2CCNCC2)C[C@H](C)[C@@]1(O)c1c(F)cc(-c2ccnc3[nH]cc(F)c23)cc1F [Compound 90, (3R,4s,5S)-4-(2,6-difluoro-4-(3-fluoro-1H-pyrrolo[2,3-b]pyridin-4-yl)phenyl)-3,5-dimethyl-[1,4′-bipiperidin]-4-ol]",4.6
17,"Cc1cc(-c2ccnc3[nH]cc(F)c23)ccc1[C@@]1(O)[C@H](C)CN(C(=O)CN)C[C@@H]1C [Compound 60, 2-amino-1-((3R,4s,5S)-4-(4-(3-fluoro-1H-pyrrolo[2,3-b]pyridin-4-yl)-2-methylphenyl)-4-hydroxy-3,5-dimethylpiperidin-1-yl)ethan-1-one]",6.7
18,"C[C@@H]1CNC[C@H](C)[C@@]1(O)c1ccc(-c2ccnc3[nH]cc(F)c23)cc1F [Compound 7, (3S,4s,5R)-4-(2-fluoro-4-(3-fluoro-1H-pyrrolo[2,3-b]pyridin-4-yl)phenyl)-3,5-dimethyl piperidin-4-ol]",6.3

# Same assay, conditions: Table 32, biochemical kinase assay; read-out: LATS2 IC50
row,SMILES,IC50 [nM]
1,"NCC(O)(c1ccc(Cl)cc1)c1ccc(-c2ccnc3[nH]cc(Br)c23)cc1 (stereo not shown) [Compound 1005, 2-amino-1-(4-(3-bromo-1H-pyrrolo[2,3-b]pyridin-4-yl)phenyl)-1-(4-chlorophenyl)ethan-1-ol]",8.9
2,"NCC(O)(c1ccc(Cl)cc1)c1ccc(-c2ccnc3[nH]cc(Br)c23)nc1 (stereo not shown) [Compound 1011, 2-amino-1-(6-(3-bromo-1H-pyrrolo[2,3-b]pyridin-4-yl)pyridin-3-yl)-1-(4-chlorophenyl)ethan-1-ol]",< 0.5
3,"NCC(O)(c1ccc(Cl)cc1)c1ccc(-c2ccnc3[nH]ccc23)cc1 (stereo not shown) [Compound 1001, 1-(4-(1H-pyrrolo[2,3-b]pyridin-4-yl)phenyl)-2-amino-1-(4-chlorophenyl)ethan-1-ol]",2.1

# Same assay, conditions: biochemical kinase inhibition; read-out: LATS2 IC50
row,SMILES,IC50 [nM]
1,"Cc1cc(-c2ccnc3[nH]cc(C#N)c23)cc(F)c1[C@@]1(O)[C@H](C)CN(C(=O)[C@@H](C)N)C[C@@H]1C [Compound 2015, 4-(4-((3S,4S,5R)-1-(D-alanyl)-4-hydroxy-3,5-dimethylpiperidin-4-yl)-3-fluoro-5-methylphenyl)-1H-pyrrolo[2,3-b]pyridine-3-carbonitrile]",2
2,"Cc1cc(-c2ccnc3[nH]cc(C#N)c23)cc(F)c1[C@@]1(O)[C@H](C)CN(C(=O)CNCC(F)(F)F)C[C@@H]1C [Compound 2014, 4-(3-fluoro-4-((3S,4s,5R)-4-hydroxy-3,5-dimethyl-1-((2,2,2-trifluoroethyl)glycyl)piperidin-4-yl)-5-methylphenyl)-1H-pyrrolo[2,3-b]pyridine-3-carbonitrile]",6
3,"Cc1cc(-c2ccnc3[nH]cc(C#N)c23)cc(F)c1[C@@]1(O)[C@H](C)CN(C(=O)[C@](C)(N)CO)C[C@@H]1C [Compound 2008, 4-(4-((3S,4s,5R)-1-(2-amino-3-hydroxy-2-methylpropanoyl)-4-hydroxy-3,5-dimethylpiperidin-4-yl)-3-fluoro-5-methylphenyl)-1H-pyrrolo[2,3-b]pyridine-3-carbonitrile]",5.5
4,"Cc1cc(-c2ccnc3[nH]cc(C#N)c23)cc(F)c1[C@@]1(O)[C@H](C)CN(C(=O)[C@H](N)CO)C[C@@H]1C [Compound 2007, 4-(4-((3S,4S,5R)-1-(D-seryl)-4-hydroxy-3,5-dimethylpiperidin-4-yl)-3-fluoro-5-methylphenyl)-1H-pyrrolo[2,3-b]pyridine-3-carbonitrile]",5.3
